Data as given in patent US6548510B1, “Pharmaceutical composition containing deoxypeganine for the treatment of nicotine dependence” (priority 1999, dated 2003).

Experiments:
smokers = test: Influence of deoxypeganine on the smoking of healthy subjects; type: in vivo, human; details: for Cigarette consumption after administration of 50 mg of deoxypeganine HCl/day: subject (smoker), 50 mg/day, administration period 24 hours
Method: Example: Influence of deoxypeganine on the smoking of healthy subjects
In the context of the testing of a deoxypeganine-containing formulation which releases about 50 mg of deoxypeganine hydrochloride per day in vivo, in addition to other subjects two smokers were also used as test subjects, as “smoking” was not an exclusion criterion in the testing. […] The administration period was 24 hours.

monoamine oxidase = details: cited from earlier work
[1] = in contrast to neostigmine; cited from earlier work
acetylcholinesterase = acetylcholinesterase (Homo sapiens, UniProt P22303); details: cited from earlier work
acetylcholinesterase, sequence (P22303 32-614, species assumed): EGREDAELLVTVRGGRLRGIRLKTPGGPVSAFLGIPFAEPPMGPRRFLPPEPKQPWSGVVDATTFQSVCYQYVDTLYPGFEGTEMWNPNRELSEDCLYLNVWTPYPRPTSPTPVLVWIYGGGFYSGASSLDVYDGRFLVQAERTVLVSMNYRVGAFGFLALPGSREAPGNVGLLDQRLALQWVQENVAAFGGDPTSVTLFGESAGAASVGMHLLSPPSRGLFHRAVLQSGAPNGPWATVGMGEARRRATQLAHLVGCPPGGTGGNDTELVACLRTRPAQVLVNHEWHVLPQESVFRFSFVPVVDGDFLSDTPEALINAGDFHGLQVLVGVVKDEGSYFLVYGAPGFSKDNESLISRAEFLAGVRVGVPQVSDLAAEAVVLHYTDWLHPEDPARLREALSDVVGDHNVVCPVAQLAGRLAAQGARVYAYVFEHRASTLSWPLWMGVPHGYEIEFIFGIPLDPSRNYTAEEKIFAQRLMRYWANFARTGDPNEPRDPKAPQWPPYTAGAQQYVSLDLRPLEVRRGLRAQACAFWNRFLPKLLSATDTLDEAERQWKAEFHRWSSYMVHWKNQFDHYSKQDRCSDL

For c1ccc2c(c1)CN1CCCC1=N2 [deoxypeganine], the “Reduction in cigarette consumption” value (smokers; single administration of 50 mg/day) is given as “considerable reduction”, the Monoamine oxidase inhibition (monoamine oxidase) is given as “inhibits” and the Blood-brain barrier crossing [1] is given as “crosses the blood-brain barrier”. The “Cholinesterase inhibitory action in comparison to physostigmine” value (acetylcholinesterase; based on the unit of weight) was “somewhat lower” and the Acetylcholinesterase inhibition (acetylcholinesterase; reversibly acting cholinesterase inhibitor) was “inhibits”.

For Cl.c1ccc2c(c1)CN1CCCC1=N2 [deoxypeganine HCl, deoxypeganine hydrochloride], the “Cigarette consumption after administration of 50 mg of deoxypeganine HCl/day” value (smokers; without deoxypeganine 22 cigarettes/day (mean of n = 3)) was 3 cigarettes, the “Cigarette consumption after administration of 50 mg of deoxypeganine HCl/day” value (smokers; without deoxypeganine 41 cigarettes/day (mean of n = 5)) was 6 cigarettes and the Desire for cigarettes (smokers; two smokers, formulation releasing about 50 mg of deoxypeganine hydrochloride per day, 24 hours) was “obviously suppressed”.
